Source: EPA's ToxRefDB 2

Columns and labels:
rat [1] = conditions: Combined chronic toxicity/carcinogenicity, fischer, Oral, Gavage/Intubation, dose end: 105 week, group: systemic
mouse [2] = conditions: Subchronic oral toxicity in rodents, b6c3f1, Gavage/Intubation, dose end: 13 week, group: systemic
rat [3] = conditions: Fertility (Segment I), sprague dawley, Oral, Gavage/Intubation, dose end: 0 day
rat [4] = conditions: Multigenerational reproductive toxicity study, sprague dawley, Oral, Gavage/Intubation, dose end: 2 generation
rat [5] = conditions: Subchronic oral toxicity in rodents, fischer, Gavage/Intubation, dose end: 13 week, group: systemic
mouse [6] = conditions: Combined chronic toxicity/carcinogenicity, b6c3f1, Oral, Gavage/Intubation, dose end: 104 week, group: systemic
[7] = systemic / pathology microscopic / kidney / mineralization + systemic / pathology microscopic / kidney / nephropathy
[8] = systemic / clinical chemistry / thyroxine (t4) / thyroxine (t4), total + systemic / hematology / reticulocyte / reticulocyte + systemic / …
[9] = group: maternal, reproductive / reproductive performance / fertility / fertility
[10] = group: parental, systemic / in life observation / body weight / body weight gain + systemic / in life observation / food consumption / food consumption + …
[11] = group: parental, systemic / pathology microscopic / testes / delayed spermiation, retained spermatids + systemic / pathology microscopic / testes / immature …
[12] = group: offspring, systemic / in life observation / body weight / offspring (pup) weight
[13] = group: parental, systemic / in life observation / body weight / body weight + systemic / in life observation / body weight / dam weight + systemic / in life …
[14] = group: parental, systemic / in life observation / water consumption / water consumption + systemic / pathology gross / sperm measure / sperm morphology
[15] = group: reproductive, reproductive / offspring survival early / live fetuses / live fetuses
[16] = group: reproductive, reproductive / offspring survival early / live fetuses / live fetuses + reproductive / reproductive performance / gestational length / …
[17] = systemic / in life observation / body weight / body weight + systemic / pathology gross / sperm measure / sperm motility
[18] = systemic / in life observation / body weight / body weight + systemic / pathology microscopic / pituitary gland / hyperplasia + systemic / …
[19] = systemic / pathology microscopic / liver / eosinophilic focus + systemic / pathology microscopic / liver / clear cell focus
[20] = systemic / pathology microscopic / liver / eosinophilic focus + systemic / pathology microscopic / liver / clear cell focus + systemic / …

`O=C(O)c1cc(N=Nc2ccc(S(=O)(=O)Nc3ccccn3)cc2)ccc1O` [Sulfasalazine] was tested, and the NOAEL (rat [1]; systemic / organ weight / kidney / absolute + systemic / pathology microscopic / kidney / hyperplasia) was 168 mg/kg/day, the LOAEL (rat [1]; systemic / organ weight / kidney / absolute + systemic / pathology microscopic / kidney / hyperplasia + systemic / in life observation / …) was 338 mg/kg/day and the LEL (rat [1]; [7]) was 84 mg/kg/day. The NEL (rat [1]; [7]) was < 84 mg/kg/day, the LEL (mouse [2]; [8]) was 675 mg/kg/day and the NEL (mouse [2]; [8]) was < 675 mg/kg/day. For the same compound, the LOAEL (mouse [2]; systemic / pathology microscopic / liver / hypertrophy) was 1350 mg/kg/day, the NOAEL (mouse [2]; systemic / pathology microscopic / liver / hypertrophy + systemic / clinical chemistry / alanine aminotransferase (alt/sgpt) / alanine …) was 675 mg/kg/day and the LEL (rat [3]; [9]) was 600 mg/kg/day. For the same compound, the LOAEL (rat [3]; [9]) was > 600 mg/kg/day, the NEL (rat [3]; [9]) was 300 mg/kg/day and the NOAEL (rat [3]; [9]) was ≥ 600 mg/kg/day. The LOAEL (rat [3]; [10]) was > 600 mg/kg/day, the NOAEL (rat [3]; [10]) was ≥ 600 mg/kg/day and the LEL (rat [3]; [11]) was 150 mg/kg/day. For the same compound, the NEL (rat [3]; [11]) was < 150 mg/kg/day, the LEL (rat [4]; [12]) was 100 mg/kg/day and the LOAEL (rat [4]; [12]) was > 400 mg/kg/day. The NEL (rat [4]; [12]) was < 100 mg/kg/day, the NOAEL (rat [4]; [12]) was ≥ 400 mg/kg/day and the LOAEL (rat [4]; [13]) was > 400 mg/kg/day. For the same compound, the NOAEL (rat [4]; [13]) was ≥ 400 mg/kg/day, the LEL (rat [4]; [14]) was 100 mg/kg/day and the NEL (rat [4]; [14]) was < 100 mg/kg/day. The LEL (rat [4]; [15]) was 100 mg/kg/day, the NEL (rat [4]; [15]) was < 100 mg/kg/day and the LOAEL (rat [4]; [16]) was > 400 mg/kg/day. For the same compound, the NOAEL (rat [4]; [16]) was ≥ 400 mg/kg/day, the LEL (rat [5]; [17]) was 84 mg/kg/day and the NEL (rat [5]; [17]) was < 84 mg/kg/day. It also gave an LOAEL (rat [5]; [18]) of 338 mg/kg/day, an NOAEL (rat [5]; [18]) of 169 mg/kg/day and an LOAEL (mouse [6]; [19]) of 675 mg/kg/day. For the same compound, the NOAEL (mouse [6]; [19]) was < 675 mg/kg/day, the LEL (mouse [6]; [20]) was 675 mg/kg/day and the NEL (mouse [6]; [20]) was < 675 mg/kg/day.
